# Like-named read-outs stand apart in the source and are kept apart here.
# What was measured:
# [1] = target: T1, human odorant receptors (ORs) (Homo sapiens, UniProt Q9Y3N9); experiment: CRE-luciferase assay of odorant receptor activation (Dual-Glo, Hana3A cells, RTP1S), dose-response EC50; type: cell-based
# T1 construct: OR open reading frames were amplified from genomic DNA; expressed in transfected cells; host or cells: Hana3A cells, co-transfected with RTP1S, CRE-luciferase and pRL-SV40
# T1 sequence (Q9Y3N9 1-320): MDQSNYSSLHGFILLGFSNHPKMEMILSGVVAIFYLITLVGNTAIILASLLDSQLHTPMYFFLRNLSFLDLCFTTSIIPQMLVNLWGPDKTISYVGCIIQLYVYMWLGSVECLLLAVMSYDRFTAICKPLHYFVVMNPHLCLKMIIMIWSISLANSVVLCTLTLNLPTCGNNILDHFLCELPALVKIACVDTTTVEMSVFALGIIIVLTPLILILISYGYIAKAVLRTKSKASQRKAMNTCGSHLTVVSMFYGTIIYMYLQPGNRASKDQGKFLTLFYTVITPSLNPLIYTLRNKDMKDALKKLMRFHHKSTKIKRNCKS
# In short: (§1)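 Hana3A cells were co-transfected with Rho-tagged OR, RTP1S, CRE-luciferase and pRL-SV40, then exposed to odorant in CD293 medium for 4 hrs at 37° C. Firefly luminescence was divided by Renilla and normalized as (LN−Lmin)/(Lmax−Lmin) per plate set. Each dose was tested at least three times, and EC50 came from sigmoidal fits.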
# [2] = target: T2, human odorant receptors (ORs) (Homo sapiens, UniProt Q9P1Q5); experiment: as above; type: cell-based
# T2 construct: OR open reading frames were amplified from genomic DNA; expressed in transfected cells; host or cells: Hana3A cells, co-transfected with RTP1S, CRE-luciferase and pRL-SV40
# T2 sequence (Q9P1Q5 1-309): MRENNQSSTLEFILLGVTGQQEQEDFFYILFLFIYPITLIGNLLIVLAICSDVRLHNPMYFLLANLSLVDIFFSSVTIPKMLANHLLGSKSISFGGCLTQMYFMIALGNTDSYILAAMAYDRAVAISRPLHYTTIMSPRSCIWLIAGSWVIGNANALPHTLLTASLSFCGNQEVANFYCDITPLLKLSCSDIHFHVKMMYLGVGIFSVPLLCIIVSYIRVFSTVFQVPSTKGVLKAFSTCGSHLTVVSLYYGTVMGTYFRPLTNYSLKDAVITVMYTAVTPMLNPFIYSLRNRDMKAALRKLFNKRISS
# In short: as §1
# [3] = receptor OR2W1, 0 = no response
# [4] = receptor OR1A1, 0 = no response
# [5] = receptor OR2W1, 0 = no response, read-out: log EC50, OR2W1 (converted)
# [6] = receptor OR1A1, 0 = no response, read-out: log EC50, OR1A1 (converted)
# [7] = receptor OR2W1, read-out: log EC50 (Table 4 value), OR2W1 (converted)
# [8] = receptor OR1A1, read-out: log EC50 (Table 4 value), OR1A1 (converted)
# [9] = receptor OR2W1, read-out: log EC50 of odorant at OR2W1 (0 = no response) (converted)
# [10] = receptor OR1A1, read-out: log EC50 of odorant at OR1A1 (0 = no response) (converted)
compound,measurement,setting,value
"C=C(C)C1CC=C(C)C(=O)C1 (single isomer, unassigned; (-)) [(−)-Carvone]","log EC50, OR2W1",[1]; [3],−4.657
same,"log EC50, OR1A1",[2]; [4],−5.765
"CC(C)=CCCC(C)CCO (single isomer, unassigned; (-)) [(−)-b-C ? inedol]",EC50,[1]; [5],7.8 µM
same,EC50,[2]; [6],91.4 µM
CCCCCCCCCCO [1-Decanol],EC50,[1],43.2 µM
same,EC50,[2],828 µM
CCCCCCCO [1-Heptanol],EC50,[1]; [5],14.8 µM
same,EC50,[2]; [6],971 µM
O=C1CCOc2ccccc21 [4-Chromanone],EC50,[1]; [7],91 µM
same,EC50,[2]; [8],462 µM
C=C(C)[C@H]1CC=C(C)C(=O)C1 [(+)-Carvone],"log EC50, OR2W1",[1]; [3],−4.646
same,"log EC50, OR1A1",[2]; [4],−5.035
C=C(C)[C@@H]1CC[C@@H](C)C(=O)C1 [(+)-Dihydrocarvone],"log EC50, OR2W1",[1]; [3],−4.755
same,"log EC50, OR1A1",[2]; [4],−4.992
CC(=O)c1ccccc1 [Acetophenone],EC50,[1]; [7],42.5 µM
C=CCOC(=O)Cc1ccccc1 [Allyl phenylacetate],EC50,[1],15.4 µM
same,EC50,[2],7.6 µM
CC(=O)OCc1ccccc1 [Benzyl acetate],EC50,[1]; [7],16.4 µM
same,EC50,[2]; [8],406 µM
O=c1ccc2ccccc2o1 [Coumarin],EC50,[1]; [7],86.1 µM
CCCCCC1=C(C)CCC1=O [Dihydroiasmone],"log EC50 (Table 4 value), OR2W1",[1]; receptor OR2W1,−4.246
same,"log EC50 (Table 4 value), OR1A1",[2]; receptor OR1A1,−7.242
CC(C)=CCC/C(C)=C/CO [Getaniol],EC50,[1]; [7],18.4 µM
same,EC50,[2]; [8],341 µM
CCCCCCCCCS [Nonanethiol],EC50,[1]; [9],86.1 µM
same,EC50,[2]; [10],571 µM
CCCCCCCCC(=O)O [Nonanoic acid],EC50,[1]; [9],189 µM
CCCCCCCCS [Octanethiol],EC50,[1]; [9],92.7 µM
same,EC50,[2]; [10],594 µM
CCCCCCCC(=O)O [Octanoic Acid],EC50,[1]; [9],14.2 µM
CC(=O)Oc1ccccc1 [Phenyl acetate],EC50,[1]; [9],84.9 µM
